Reference: ChEMBL document CHEMBL1140850, “Structure-activity relationships of lipopolysaccharide sequestration in guanylhydrazone-bearing lipopolyamines” (Bioorg Med Chem, 2009)
Active and inactive are the calls of the source. No cut-off for these calls is given here.

Key:
J774.A1 = assay: Inhibition of LPS-induced NO production in mouse J774A1 cells by Griess assay; assay type: functional, cell-based
HEK293 = assay: Inhibition of LPS-induced NF-kappaB nuclear transactivation in HEK293 cells coexpressed with TLR4 assessed as alkaline phosphatase activity by spectrophotometry; assay type: cell-based; settings: Homo sapiens
Mus musculus [1] = assay: Toxicity in Escherichia coli 0111:B4 LPS-induced lethality in CF1 mouse at 200 mg/kg, ip after 24 hrs; assay type: organism-based; design: dose 200 mg/kg, route intraperitoneal; settings: in vivo
Mus musculus [2] = assay: Toxicity in Escherichia coli 0111:B4 LPS-induced lethality in ip dosed CF1 mouse after 24 hrs; assay type: organism-based; settings: in vivo
Blood = assay: Inhibition of Escherichia coli 0111:B4 LPS-induced proinflammatory cytokine production in human whole blood after 4 hrs; assay type: functional, tissue-based

For CCCCCCCCCCCCCCCCNCCCNCCCCNCCCNCC/C=N/NC(=N)N, the Activity (J774.A1) was “Active” and the Activity (HEK293) was “Active”.
With CCCCCCCCCCCCCCCCNC(=N)N/N=C/CCNCCCNCCCCNCCCN.O=C(O)C(F)(F)F the Activity (J774.A1) was “Active”, the Activity (Mus musculus [1]) was “Non-toxic” and the Activity (Mus musculus [2]) was “Dose-dependent effect”. The LD100 (Mus musculus [2]) was 100 ng and the Activity (Blood) was “Dose-dependent effect”.
